# Patent US20220133714A1, “EXTRACELLULAR MATRIX MODULATING AGENT” (KOWA COMPANY, LTD., priority 2019, published 2022)
# Columns and labels:
# [1] = test system: human fibroblasts; details: cited from earlier work
# [2] = test system: corneal endothelial cells; details: cited from earlier work; for apoptosis and endothelial-mesenchymal transition (EMT) of corneal endothelial cells / cell adhesion, migration, proliferation and wound healing: in vitro and in vivo animal models
# [3] = test system: corneal endothelial cells of normal donors; test: Real-time PCR expression of FECD-associated matrix genes in normal donor endothelial-Descemet membrane specimens; assay type: cell-based, human; details: normal EDM specimens, 24 h
# Description: FIG. 3 illustrates Relative expression of FECD-associated matrix genes in corneal endothelial cells of normal donors (n=6) without and with incubation in 10-100 μM K-115 for 24 h. Gene expression was analyzed by quantitative real-time PCR and normalized to GAPDH (*p<0.01).
# (§1) Endothelial-Descemet membrane (EDM)-complexes from normal donor corneas and from FECD patients during DMEK surgery were prepared. EDM scrolls were dissected into two halves and incubated for 24-72 hours in CorneaMax storage medium (Eurobio) with or without K-115 (Selleck Chemicals). Gene expression analysis was performed using specific real-time PCR arrays for FECD-associated candidate genes as well as RT2 Profiler PCR Arrays (Quiagen). Array results were again validated using gene-specific real-time PCR assays. Protein expression analysis was performed by Western blotting.
# [4] = test system: corneal endothelial cells of FECD patients; test: Real-time PCR expression of FECD-associated matrix genes in FECD patient endothelial-Descemet membrane specimens; assay type: cell-based, human; details: 30 μM, 24 hours, vs untreated controls
# Description: (§2) FIG. 4 illustrates Relative expression of FECD-associated matrix genes in corneal endothelial cells of FECD patients (n=20) without and with incubation in 30 μM K-115 for 24 h. Gene expression was analyzed by quantitative real-time PCR and normalized to GAPDH (*p<0.01, **p<0.001). Endothelial-Descemet membrane (EDM)-complexes from normal donor corneas and from FECD patients during DMEK surgery were prepared. EDM scrolls were dissected into two halves and incubated for 24-72 hours in CorneaMax storage medium (Eurobio) with or without K-115 (Selleck Chemicals). Gene expression analysis was performed using specific real-time PCR arrays for FECD-associated candidate genes as well as RT2 Profiler PCR Arrays (Quiagen). Array results were again validated using gene-specific real-time PCR assays. Protein expression analysis was performed by Western blotting. Then, gene expression levels in FECD specimens were analyzed, which were incubated in 30 μM K-115 for 24 hours. […] In order to identify additional matrix genes that may be transcriptionally regulated by K-115, gene expression profiling using a Human Extracellular Matrix and Adhesion Molecule PCR array were performed. With this approach, downregulation of fibronectin and collagen types I and III and detected additional downregulation of vitronectin and collagen types V and XIV in corneal endothelial cells from FECD patients (data not shown) were confirmed.
# [5] = test system: corneal endothelial cells from FECD patients; test: Human Extracellular Matrix and Adhesion Molecule PCR array gene expression profiling; assay type: cell-based; details: data not shown
# Description: as §2, with “Endothelial-Descemet” for “FIG. 4 illustrates Relative expression of FECD-associated matrix genes in corneal endothelial cells of FECD patients (n=20) without and with incubation in 30 μM K-115 for 24 h. Gene expression was analyzed by quantitative real-time PCR and normalized to GAPDH (*p<0.01, **p<0.001). Endothelial-Descemet”
# [6] = test system: corneal endothelial cells of FECD patients; test: Western blot protein expression in FECD specimens; assay type: cell-based, human; details: 30 μM, 72 hours of incubation
# Description: FIG. 5 illustrates Western Blot analysis of fibronectin in corneal endothelial cells of FECD patients (n=4); equal loading of samples was verified by β-actin.
# as §1
# Then, gene expression levels in FECD specimens were analyzed, which were incubated in 30 μM K-115 for 24 hours. […] In order to identify additional matrix genes that may be transcriptionally regulated by K-115, gene expression profiling using a Human Extracellular Matrix and Adhesion Molecule PCR array were performed. With this approach, downregulation of fibronectin and collagen types I and III and detected additional downregulation of vitronectin and collagen types V and XIV in corneal endothelial cells from FECD patients (data not shown) were confirmed.
smiles,measurement,setting,value
O=S(=O)(c1cccc2cnccc12)N1CCCNCC1 [Fasudil],"expression of α-SMA, MLCP, LIMK1, p-cofilin, collagen I, and collagen III protein",[1],attenuated
Cc1cncc2cccc(S(=O)(=O)N3CCCNC[C@@H]3C)c12 [H-1152],apoptosis and endothelial-mesenchymal transition (EMT) of corneal endothelial cells,[2],suppressed
same,"cell adhesion, migration, proliferation and wound healing",[2],stimulated
"C[C@H]1CNCCCN1S(=O)(=O)c1cccc2cncc(F)c12 [K-115, (S)-(−)-1-(4-fluoro-5-isoquinolinesulfonyl)-2-methyl-1,4-homopiperazine]",agrin gene expression,"[3]; 10-100 μM, normalized to GAPDH",significantly downregulated
same,collagen type I gene expression,"[3]; 10-100 μM, normalized to GAPDH",significantly downregulated
same,collagen type III gene expression,"[3]; 10-100 μM, normalized to GAPDH",significantly downregulated
same,fibronectin gene expression,"[3]; 10-100 μM, normalized to GAPDH",significantly downregulated
same,α-smooth muscle actin (α-SMA) gene expression,"[3]; 10-100 μM, normalized to GAPDH",significantly downregulated
same,β-actin gene expression,"[3]; 10-100 μM, normalized to GAPDH",significantly downregulated
same,most effective concentration for downregulation of matrix genes,[3]; tested 10-100 μM,30 µM
same,TGFBI gene expression,[4],upregulated
same,agrin gene expression,[4],significant reduction
same,collagen type I gene expression,[4],significant reduction
same,collagen type III gene expression,[4],significant reduction
same,collagen type XVI gene expression,[4],upregulated
same,fibronectin gene expression,[4],significant reduction
same,integrin a4 (ITGA4) gene expression,[4],upregulated
same,α-SMA gene expression,[4],significant reduction
same,collagen type I gene expression (PCR array),[5],downregulation
same,collagen type III gene expression (PCR array),[5],downregulation
same,collagen type V gene expression (PCR array),[5],downregulation
same,collagen type XIV gene expression (PCR array),[5],downregulation
same,fibronectin gene expression (PCR array),[5],downregulation
same,vitronectin gene expression (PCR array),[5],downregulation
same,EMT markers,[2],downregulation
same,endothelial cell proliferation and wound healing,[2],stimulating
same,functional endothelial markers,[2],upregulation
same,collagen type III protein level,[6],significantly downregulated
same,fibronectin protein level,[6]; Western blot,significantly downregulated
O=C(NCc1ccccc1)c1csc(Nc2ccncn2)n1 [Thiazovivin],apoptosis and endothelial-mesenchymal transition (EMT) of corneal endothelial cells,[2],suppressed
same,"cell adhesion, migration, proliferation and wound healing",[2],stimulated
C[C@@H](N)[C@H]1CC[C@H](C(=O)Nc2ccncc2)CC1 [Y-27632],apoptosis and endothelial-mesenchymal transition (EMT) of corneal endothelial cells,[2],suppressed
same,"cell adhesion, migration, proliferation and wound healing",[2],stimulated
